Active and inactive are the calls of the source. The rule behind the calls is not given here.

Results on one compound are retold here after ChEMBL document CHEMBL1149090, “Synthesis of a potent transition-state inhibitor of 5'-deoxy-5'-methylthioadenosine phosphorylase” (J Med Chem, 2004).

The subject of test [1] is MOLT-4. Description: Tested for inhibition of MOLT-4 cells proliferation in the presence of 3 uM MTA. The format is functional, cell-based. To be noted: Homo sapiens.
In test [2] the target is T1, S-methyl-5'-thioadenosine phosphorylase (Homo sapiens, UniProt Q13126).
T1 sequence (Q13126 whole entry): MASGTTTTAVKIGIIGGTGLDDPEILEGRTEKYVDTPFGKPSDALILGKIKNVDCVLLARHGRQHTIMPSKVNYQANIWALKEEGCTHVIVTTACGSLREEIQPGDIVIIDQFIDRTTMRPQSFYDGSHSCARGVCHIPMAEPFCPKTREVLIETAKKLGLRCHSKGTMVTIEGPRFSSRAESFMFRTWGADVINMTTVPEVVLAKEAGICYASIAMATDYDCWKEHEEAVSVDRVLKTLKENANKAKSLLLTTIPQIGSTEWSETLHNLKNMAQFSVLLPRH
Description: Inhibitory concentration against Methylthioadenosine phosphorylase.

For test [3], the system named is MOLT-4. The experiment in a line: Tested for inhibition of MOLT-4 cells proliferation in the presence of 100 nM methotrexate and 10 uM of the compound; not significant. The format is functional, cell-based. As to conditions: Homo sapiens.
Test [4] has as its system MOLT-4. The experiment in a line: Tested for inhibition of MOLT-4 cells proliferation up to 10 uM; No Inhibition. The format is functional, cell-based. To be noted: Homo sapiens.

In the case of `CSC[C@H]1N[C@@H](c2c[nH]c3c(N)ncnc23)[C@H](O)[C@@H]1O`, the IC50 – broadly, the concentration that inhibits the measured activity by half – in the test on MOLT-4 [1] worked out at 1000 nM; in test [2], 1.2 nM. Moreover, the inhibition entry with MOLT-4 [3] and in the test with MOLT-4 [4] was “inactive” throughout.
